Results as given in paper PMC5617480 (Oncotarget, 2017).

Legend:
[1] = test system: HL-7702 normal cells; assay: Cytotoxicity assay (MTT assay); format: cell-based, human; settings: for Inhibitory rates (%): HL-7702, 20 μM; for IC50: HL-7702, 24 h
Procedure: (§1) To evaluate the cytotoxicity of chiral platinum(II) complexes, HeLa, BEL-7402, MGC80-3, BEL-7404, A549, Hep-G2 and HL-7702 cells (normal cells) were treated with varying concentrations of complexes 1–6 and cisplatin (positive control, cisplatin was dissolved at a concentration of 1.0 mM in 0.154 M NaCl) for 24 h and 48 h. The cell viability of each experimental group was examined by MTT assays. […] [61, 62].
(§2) Materials 100 U/mL penicillin and 100 μg/mL streptomycin in 25 cm2 culture flasks at 37 °C humidified atmosphere with Tris, RNase A, and propidium iodide (PI) were 5% CO2. All cells to be tested in the following assays have purchased from Sigma. The antibody of mutp53, a passage number of 3-6. […]
(§3) were purchased from Abcam. Unless otherwise stated, BEL-7404, A549, and Hep-G2 cancer-cell lines and HL-spectroscopic titration experiments were carried out in 7702 normal cells) per well were seeded in triplicate in TBS (10 mM pH7.35 Tris-HCl, containing 100 mM KCl). 96-well plates and incubated for 24 h at 37 °C and 5.0% The total RNA isolation kit and the two-step RT-PCR kit CO2/95.0% air. Then graded amounts of compound were purchased from TIANGEN. DNA oligomers (highly added to the wells in 10.0 μL of FBS free culture medium polymerized stored at 4 °C; long-term storage at −20 °C) and the plates were incubated in a 5% CO2 humidified are listed in Supplementary Table 1 and were obtained from atmosphere for 24 h and 48 h. Six replica wells were used Shanghai Sangon Biological Engineering Technology & as controls. Each the cells were grew for 12.0 h before Services (Shanghai, China). All tumor cell lines (HeLa, treatment to reach 70.0% confluency and 20.0 μL of tested BEL-7402, MGC80-3, BEL-7404, A549, Hep-G2 cancer- various concentrations of compounds were added to each cell lines and normal liver cell line HL-7702) were obtained well. The final concentration of the tested complexes from the Shanghai Institute for Biological Science (China). or compounds were kept at 1.25, 2.5, 5, 10, 20 μM, Stock solutions of all the compounds (2.0 mM) were made respectively. After 24 h or 48 h of culture, 0.1 mg of in DMSO, and further dilutions to working concentrations MTT (in 20 μL of PBS) was added to each well, and cells were made with corresponding buffer. were incubated at 37 °C for 6 h. The formed formazan crystals were then dissolved in 100 μL of DMSO and the Instrumentation absorbance was read by enzyme labeling instrument with Infrared spectra were obtained on a Perkine Elmer 490/630 nm double wavelength measurement. The final FT-IR Spectrometer. Elemental analyses (C, H, N) IC50 values were calculated by the Bliss method (n = 5). were carried out on a Perkin Elmer Series II CHNS/O All tests were repeated in at least three independent trials. […]

[2] = test system: A549 cells; assay: Cytotoxicity assay (MTT assay); format: cell-based, human; settings: for Inhibitory rates (%): A549, 20 μM; for IC50: A549, 24 h
Procedure: as §1, with “62]. […] Therefore, complex 6 (10 μM) was selected for cell apoptosis analysis by flow-cytometry, RT-PCR, caspase-3/9 activation assays, western blot and transfection assays in BEL-7404 cells for 24 h. In addition, this observed difference in in vitro cytotoxicity between the three complexes 4–6 could be due to the influence of the chirality of the FOA ligand [68]. […]” for “62].”
as §2, §3
(§4) 10.0 min. The cell pellet obtained was dissolved in 1.0 M
(§5) The region between 200 and 400 nm was scanned for each NaOH (1.0 mL) and diluted with 2.0% (v/v) HNO3 (5.0 sample. MTT assay was performed on M1000 microplate mL) for determining whole cell Pt content. Another set reader (Tecan Trading Co. Ltd, Shanghai, China). Cell was treated similarly, nuclear proteins, nuclear fraction, cycle and apoptosis analysis was recorded on FACS Aria cytoplasmic protein, membrane proteins and other fraction II Flow Cytometer (BD Biocsiences, San Jose, USA). were isolated as described by Chen and Schreiber et al. And the each final solution was made up to 5.0 mL
(§6) Cytotoxicity assay (MTT assay) using 2.0% (v/v) HNO3. The amount of Pt taken up by the cells was determined by ICP-MS. The instrument was […]

[3] = test system: BEL-7404 cells; assay: Cytotoxicity assay (MTT assay); format: cell-based, human; settings: for Inhibitory rates (%): BEL-7404, 20 μM; for IC50: BEL-7404, 24 h
Procedure: as §1, with “62]. […] Therefore, complex 6 (10 μM) was selected for cell apoptosis analysis by flow-cytometry, RT-PCR, caspase-3/9 activation assays, western blot and transfection assays in BEL-7404 cells for 24 h. In addition, this observed difference in in vitro cytotoxicity between the three complexes 4–6 could be due to the influence of the chirality of the FOA ligand [68]. […]” for “62].”
as §2, §3, §4, §5, §6

[4] = test system: BEL-7402 cells; assay: Cytotoxicity assay (MTT assay); format: cell-based, human; settings: for Inhibitory rates (%): BEL-7402, 20 μM; for IC50: BEL-7402, 24 h
Procedure: as §1, with “62]. […] Therefore, complex 6 (10 μM) was selected for cell apoptosis analysis by flow-cytometry, RT-PCR, caspase-3/9 activation assays, western blot and transfection assays in BEL-7404 cells for 24 h. In addition, this observed difference in in vitro cytotoxicity between the three complexes 4–6 could be due to the influence of the chirality of the FOA ligand [68]. […]” for “62].”
as §2, §3, §4, §5, §6

[5] = test system: Hep-G2 cells; assay: Cytotoxicity assay (MTT assay); format: cell-based, human; settings: for Inhibitory rates (%): Hep-G2, 20 μM; for IC50: Hep-G2, 24 h
Procedure: as §1, with “62]. […] Therefore, complex 6 (10 μM) was selected for cell apoptosis analysis by flow-cytometry, RT-PCR, caspase-3/9 activation assays, western blot and transfection assays in BEL-7404 cells for 24 h. In addition, this observed difference in in vitro cytotoxicity between the three complexes 4–6 could be due to the influence of the chirality of the FOA ligand [68]. […]” for “62].”
as §2, §3, §4, §5, §6

[6] = test system: HeLa cells; assay: Cytotoxicity assay (MTT assay); format: cell-based, human; settings: for Inhibitory rates (%): 20 μM
Procedure: as §1, with “62]. […] Therefore, complex 6 (10 μM) was selected for cell apoptosis analysis by flow-cytometry, RT-PCR, caspase-3/9 activation assays, western blot and transfection assays in BEL-7404 cells for 24 h. In addition, this observed difference in in vitro cytotoxicity between the three complexes 4–6 could be due to the influence of the chirality of the FOA ligand [68]. […]” for “62].”
as §2, §3, §4, §5, §6

[7] = test system: MGC80-3 cells; assay: Cytotoxicity assay (MTT assay); format: cell-based, human; settings: for Inhibitory rates (%): MGC80-3, 20 μM; for IC50: MGC80-3, 24 h
Procedure: as §1, with “62]. […] Therefore, complex 6 (10 μM) was selected for cell apoptosis analysis by flow-cytometry, RT-PCR, caspase-3/9 activation assays, western blot and transfection assays in BEL-7404 cells for 24 h. In addition, this observed difference in in vitro cytotoxicity between the three complexes 4–6 could be due to the influence of the chirality of the FOA ligand [68]. […]” for “62].”
as §2, §3, §4, §5, §6

[8] = test system: c-kit-2; design: method as in earlier work; settings: ref [1], cited from earlier work; for ctDNADC50/c-kit-2DC50: FID selectivity ratio; for c-kit-2DC50: FID

Row | Compound | selectivity index factor, IC50 (normal HL-7702 cells)/IC50 (BEL-7404 tumor cells) ([1]; 24 h) | Inhibitory rates (%) ([1]; 24 h) | Inhibitory rates (%) ([1]; 48 h) | IC50 [1] [µM] | Inhibitory rates (%) ([2]; 24 h) | Inhibitory rates (%) ([2]; 48 h) | IC50 [2] [µM] | Inhibitory rates (%) ([3]; 24 h) | Inhibitory rates (%) ([3]; 48 h) | IC50 [3] [µM] | Inhibitory rates (%) ([4]; 24 h) | Inhibitory rates (%) ([4]; 48 h) | IC50 [4] [µM] | Inhibitory rates (%) ([5]; 24 h) | Inhibitory rates (%) ([5]; 48 h) | IC50 [5] [µM] | Inhibitory rates (%) ([6]; 24 h) | Inhibitory rates (%) ([6]; 48 h) | IC50 ([6]; 24 h) [µM] | Inhibitory rates (%) ([7]; 24 h) | further results
1 | O=C(NC[C@@H](O)CO)c1cnc2c3c(cccc13)-c1ccccc1C2=O.[Cl-].[Cl-].[Pt+2] [ligand 2, R-(+)-FOA] | 1.4 | 25.2 ± 0.3 | 30.6 ± 2.1 | 101.8 ± 0.4 | 28.9 ± 1.4 | 47.9 ± 0.9 | 67.2 ± 1.5 | 25.1 ± 1.2 | 50.0 ± 0.6 | 72.3 ± 1 | 17.0 ± 0.6 | 22.3 ± 1.1 | 94.1 ± 0.5 | 17.5 ± 0.4 | 23.6 ± 2.3 | 90.6 ± 0.3 | 18.9 ± 0.6 | 26.8 ± 1.2 | 87.5 ± 0.8 | 9.6 ± 0.6 | Inhibitory rates (%) ([7]; 48 h): 19.6 ± 0.8%; IC50 [7]: 158.1 ± 0.6 µM; ctDNADC50/c-kit-2DC50 [8]: < 0.40; c-kit-2DC50 [8]: > 100 µM
2 | O=C(NC[C@H](O)CO)c1cnc2c3c(cccc13)-c1ccccc1C2=O.[Cl-].[Cl-].[Pt+2] [ligand 3, S-(–)-FOA] | 3.5 | 23.4 ± 0.9 | 27.5 ± 1.2 | 105.3 ± 1 | 37.2 ± 0.8 | 51.2 ± 3.4 | 36.4 ± 1 | 42.8 ± 0.4 | 64.8 ± 1.3 | 30.1 ± 0.7 | 35.1 ± 1.3 | 41.8 ± 2.5 | 45.8 ± 1.4 | 24.9 ± 0.8 | 29.3 ± 0.9 | 70.1 ± 0.8 | 31.2 ± 0.4 | 36.6 ± 1.5 | 43.2 ± 0.4 | 24.2 ± 0.5 | Inhibitory rates (%) ([7]; 48 h): 28.2 ± 1.4%; IC50 [7]: 78.2 ± 0.7 µM; ctDNADC50/c-kit-2DC50 [8]: 3.92; c-kit-2DC50 [8]: 22.94 µM
